Read-outs that look alike come from different tables or passages of the source.
Key:
SARS-CoV-2 M^pro [1] = target: T1, SARS-CoV-2 M^pro (Severe acute respiratory syndrome coronavirus 2, UniProt P0DTD1); assay: Enzyme kinetics of M^pro with inhibitors; assay type: biochemical; settings: for in vitro activity against M^pro in words: compounds of this study with hydrophilic groups in S4
SARS-CoV-2 M^pro [2] = target: T1, SARS-CoV-2 M^pro; settings: cited from earlier work
M^pro = settings: covalent inhibitors, ref Dai et al., 2020, Ma et al., Qiao et al., 2021; cited from earlier work

SMILES	in vitro activity against M^pro in words (SARS-CoV-2 M^pro [1])	IC50 in words (M^pro)	also measured
CC(C)(O)CCOc1cc(Cl)cc(-c2cc(-c3c[nH]c(=O)[nH]c3=O)cn(-c3cccnc3)c2=O)c1 [Compound 29, 5-(3-(3-Chloro-5-(3-hydroxy-3-methylbutoxy)phenyl)-2-oxo-2H-[1,3'-bipyridin]-5-yl) pyrimidine-2,4(1H,3H)-dione]	high-nanomolar range		IC50 (SARS-CoV-2 M^pro [1]): 0.25 to 0.5 µM; decrease in activity compared with 11 (SARS-CoV-2 M^pro [1]; compared with compound 11): greater than 2 fold
N#Cc1ccccc1-c1cc(-c2ccccn2)cn(-c2ccccc2)c1=O [Perampanel, perampanel]			IC50 (SARS-CoV-2 M^pro [2]): 100 to 250 µM
O=C1CN(CCOc2cc(Cl)cc(-c3cc(-c4c[nH]c(=O)[nH]c4=O)cn(-c4cccnc4)c3=O)c2)CCN1 [Compound 50, 5-(3-(3-Chloro-5-(2-(3-oxopiperazin-1-yl)ethoxy)phenyl)-2-oxo-2H-[1,3'-bipyridin]-5-yl) pyrimidine-2,4(1H,3H)-dione]	high-nanomolar range		
CC(C)C[C@H](NC(=O)OCc1ccccc1)C(=O)N[C@@H](CC1CCNC1=O)C(O)S(=O)(=O)[O-].[Na+] (some centres unmarked) [GC-376]		Low-nanomolar	
O=CC(CC1CCNC1=O)NC(=O)C(Cc1cccc(F)c1)NC(=O)c1cc2ccccc2[nH]1 (centres unmarked) [Compound 11b]		Low-nanomolar	
O=CC(CC1CCNC1=O)NC(=O)C(CC1CCCCC1)NC(=O)c1cc2ccccc2[nH]1 (centres unmarked) [Compound 11a]		Low-nanomolar	

From publication PMC8218531 (Structure (London, England : 1993), 2021)
